Measured values as given in patent publication US20130172320A1, “PYRIDO [4,3-B] INDOLE AND PYRIDO [3,4-B] INDOLE DERIVATIVES AND METHODS OF USE” (priority 2010, published 2013).

What was measured:
[1] = biological target: human recombinant serotonin (5-Hydroxytryptamine) 5-HT7 receptor (Homo sapiens, UniProt P34969); assay: Serotonin 5-HT7 radioligand binding ([3H]LSD); settings: compound at 0.1 μM; read-out: Percentage inhibition of ligand binding, Serotonin (0.1 μM) 5-HT7
Protocol: To evaluate in radioligand binding assays the activity of compounds of the invention, human recombinant serotonin (5-Hydroxytryptamine) 5-HT7 receptor expressed in Chinese hamster ovary (CHO) cells (Roth, B. et al, J. Pharmacol. Exp. Ther. 268:1403, 1994; Shen, Y. et al, J. Biol. Chem. 268:18200, 1993) in a modified Tris-HCl buffer (50 mM Tris-HCl, pH 7.4, 10 mM MgCl2, 0.5 mM EDTA) was used. Compounds of invention were incubated with 5.5 nM [^3H] Lysergic acid diethylamide (LSD) for 2 h at 25° C. Non-specific binding was estimated in the presence of 10 μM Serotonin (5-HT). Receptor proteins were filtered and washed, the filters were then counted to determine [^3H]LSD specifically bound. Compounds were screened at 1 μM or lower, using 1% DMSO as vehicle. Biochemical assay results are presented as the percent inhibition of specific binding in Table 4.

[2] = biological target: T1, human recombinant serotonin (5-Hydroxytryptamine) 5-HT2C receptor (Homo sapiens, UniProt P28335); assay: Serotonin 5-HT2C radioligand binding ([3H]Mesulergine); settings: compound at 0.1 μM; read-out: Percentage inhibition of ligand binding, Serotonin (0.1 μM) 5-HT2C
T1 construct: expressed in transfected cells; host or cells: Chinese hamster ovary (CHO) K1 cells
T1 sequence (P28335 33-458): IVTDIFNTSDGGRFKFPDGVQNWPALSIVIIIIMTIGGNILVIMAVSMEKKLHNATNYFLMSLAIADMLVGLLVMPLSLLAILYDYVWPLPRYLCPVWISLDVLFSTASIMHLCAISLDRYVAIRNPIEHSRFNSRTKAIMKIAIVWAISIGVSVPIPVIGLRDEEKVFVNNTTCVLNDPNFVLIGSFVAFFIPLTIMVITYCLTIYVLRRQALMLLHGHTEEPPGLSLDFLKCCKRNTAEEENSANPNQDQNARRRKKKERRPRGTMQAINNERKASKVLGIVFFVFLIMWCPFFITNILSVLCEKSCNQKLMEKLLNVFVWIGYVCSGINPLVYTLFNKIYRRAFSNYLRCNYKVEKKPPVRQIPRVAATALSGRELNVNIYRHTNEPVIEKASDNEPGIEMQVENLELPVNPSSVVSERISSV
Protocol: To evaluate in radioligand binding assays the activity of compounds of the invention, human recombinant serotonin (5-Hydroxytryptamine) 5-HT2C receptor expressed in Chinese hamster ovary (CHO) K1 cells (Wolf, W. et al, J. Neurochem. 69:1449, 1997) in a modified Tris-HCl buffer (50 mM Tris-HCl, pH 7.4, 0.1% Ascorbic Acid, 10 μM Pargyline) was used. Compounds of the invention were incubated with 1 nM [^3H]Mesulergine for 60 min at 25° C. Non-specific binding was estimated in the presence of 1 μM Mianserin. Receptor proteins were filtered and washed, the filters were then counted to determine [^3H]Mesulergine specifically bound. Compounds were screened at 1 μM or lower, using 1% DMSO as vehicle. Biochemical assay results are presented as the percent inhibition of specific binding in Table 4.

[3] = biological target: T2, human recombinant adrenergic α1D receptor (Homo sapiens, UniProt P25100); assay: Adrenergic α1D radioligand binding ([3H]Prazosin); settings: compound at 0.1 μM; read-out: Percentage inhibition of ligand binding, Adrenergic (0.1 μM) a1D
T2 construct: expressed in transfected cells; host or cells: human embryonic kidney (HEK-293) cells
T2 sequence (P25100 1-572): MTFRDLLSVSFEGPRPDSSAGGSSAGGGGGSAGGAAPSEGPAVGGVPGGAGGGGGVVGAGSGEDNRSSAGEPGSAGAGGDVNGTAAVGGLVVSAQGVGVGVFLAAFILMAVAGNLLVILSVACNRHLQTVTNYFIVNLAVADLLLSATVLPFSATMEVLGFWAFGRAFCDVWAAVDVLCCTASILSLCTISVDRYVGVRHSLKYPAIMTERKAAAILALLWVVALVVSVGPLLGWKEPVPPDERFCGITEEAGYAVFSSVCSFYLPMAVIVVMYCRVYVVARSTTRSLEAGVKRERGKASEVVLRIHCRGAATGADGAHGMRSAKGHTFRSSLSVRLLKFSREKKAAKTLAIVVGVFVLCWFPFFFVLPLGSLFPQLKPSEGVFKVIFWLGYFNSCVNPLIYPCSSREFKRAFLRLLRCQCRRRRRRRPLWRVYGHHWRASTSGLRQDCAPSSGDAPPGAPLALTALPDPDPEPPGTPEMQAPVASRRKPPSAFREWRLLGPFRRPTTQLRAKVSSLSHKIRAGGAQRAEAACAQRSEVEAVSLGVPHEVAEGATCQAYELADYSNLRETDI
Protocol: To evaluate in radioligand binding assays the activity of compounds of the invention, human recombinant adrenergic α1D receptor expressed in human embryonic kidney (HEK-293) cells (Kenny, B. et al, Br. J. Pharmacol. 115(6):981, 1995) in a 50 mM Tris-HCl buffer, pH 7.4, was used. Compounds of invention were incubated with 0.6 nM [^3H]Prazosin for 60 min at 25° C. Non-specific binding was estimated in the presence of 10 μM phentolamine. Receptor proteins were filtered and washed, the filters were then counted to determine [^3H]Prazosin specifically bound. Compounds were screened at 1 μM or lower, using 1% DMSO as vehicle. Biochemical assay results are presented as the percent inhibition of specific binding in Table 3.

Chain of human recombinant serotonin (5-Hydroxytryptamine) 5-HT7 receptor (P34969 whole entry): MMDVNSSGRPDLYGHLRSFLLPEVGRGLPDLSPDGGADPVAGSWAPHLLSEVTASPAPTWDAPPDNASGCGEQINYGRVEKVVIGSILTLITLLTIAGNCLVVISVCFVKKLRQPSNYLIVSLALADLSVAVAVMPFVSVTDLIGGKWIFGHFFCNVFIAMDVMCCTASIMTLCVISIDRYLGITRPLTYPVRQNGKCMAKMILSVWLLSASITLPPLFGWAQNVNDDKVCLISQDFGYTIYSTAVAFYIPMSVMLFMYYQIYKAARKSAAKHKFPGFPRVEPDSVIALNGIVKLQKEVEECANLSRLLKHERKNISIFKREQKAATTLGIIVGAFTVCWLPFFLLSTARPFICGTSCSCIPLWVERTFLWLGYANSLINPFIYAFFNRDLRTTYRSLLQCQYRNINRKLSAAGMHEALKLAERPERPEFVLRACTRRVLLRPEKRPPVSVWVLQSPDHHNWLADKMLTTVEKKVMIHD

| SMILES | inhibition at 0.1 µM [1] [%] | inhibition at 0.1 µM [2] [%] | inhibition at 0.1 µM [3] [%] |
| --- | --- | --- | --- |
| C#CCC1(C)CN(C)Cc2c1n(C)c1ccc(C)cc21 (stereo not drawn) [Compound 47, 2,4,5,8-tetramethyl-4-(prop-2-ynyl)-2,3,4,5-tetrahydro-1H-pyrido[4,3-b]indole] | 13 | 19 | 10 |
| Cc1ccc2c(c1)c1c(n2C)C(C)(CCc2nc(-c3ccccc3)cs2)CN(C)C1 (stereo not drawn) [Compound 48] | 17 | 25 | 13 |
